Legend:
[1] = molar heat capacity at saturation pressure
[2] = Molar enthalpy of transition or fusion; conditions: Crystal

Cc1ccc2ccccc2n1 [2-methylquinoline]
molar heat capacity [J/K/mol], [1], Vacuum adiabatic calorimetry
Conditions | Crystal | Liquid
84.08 K | 67.08 | –
89.02 K | 69.74 | –
90 K | 70.27 | –
92.31 K | 71.48 | –
97.21 K | 73.97 | –
100 K | 75.42 | –
101.28 K | 76.06 | –
106.32 K | 78.59 | –
110.83 K | 80.82 | –
116.09 K | 83.37 | –
120 K | 85.27 | –
125.97 K | 88.15 | –
135.92 K | 92.98 | –
140 K | 94.96 | –
145.89 K | 97.82 | –
155.92 K | 102.78 | –
160 K | 104.8 | –
166.03 K | 107.81 | –
176.22 K | 112.93 | –
180 K | 114.86 | –
187.41 K | 118.71 | –
190.57 K | 120.24 | –
199.53 K | 125.07 | –
200 K | 125.32 | –
205.56 K | 128.27 | –
211.51 K | 131.45 | –
220 K | 135.9 | –
222.27 K | 136.99 | –
223.47 K | 137.78 | –
223.49 K | 138.03 | –
235.04 K | 144.29 | –
235.46 K | 144.65 | –
239.04 K | 146.8 | –
240 K | 147.3 | –
241.52 K | 148.31 | –
247.49 K | 151.95 | –
250 K | – | 205.2
250.7 K | 154.08 | –
251.78 K | – | 205.82
256.02 K | – | 207.51
257.75 K | 159.11 | –
259.67 K | 160.66 | –
260 K | 160.12 | 209.03
261.22 K | 161.55 | –
263.55 K | – | 210.39
270.48 K | 167.45 | 212.97
272.7 K | – | 213.77
277.13 K | – | 215.45
278.52 K | – | 216.02
280 K | – | 216.58
285.4 K | – | 218.72
286.61 K | – | 219.19
294.19 K | – | 222.16
298.15 K | – | 223.78
300 K | – | 224.52
300.52 K | – | 224.72
310.63 K | – | 228.85
320 K | – | 232.73
327.13 K | – | 235.7
340 K | – | 241.04
343.64 K | – | 242.54
360 K | – | 249.4
360.17 K | – | 249.47
376.73 K | – | 256.39
380 K | – | 257.77
393.31 K | – | 263.29
400 K | – | 266.05
409.82 K | – | 270.1
420 K | – | 274.27
426.33 K | – | 276.86
439.48 K | – | 282.23
440 K | – | 282.48

[1], Liquid
Conditions | molar heat capacity [J/K/mol]
460 K | 291.16
480 K | 299.73
500 K | 308.3
520 K | 316.87
540 K | 325.39
560 K | 333.78
580 K | 341.97
600 K | 349.93
620 K | 357.61
640 K | 365.01
660 K | 372.23
680 K | 379.58
700 K | 387.75

Conditions | Molar enthalpy of transition or fusion [kJ/mol]
[2] | 12.52

Source: the NIST ThermoML archive (doi:10.1021/je049595u)
